According to paper PMC7849018 (Antimicrobial Agents and Chemotherapy, 2021):
Entries after “also recorded” stand apart in the source; their conditions may differ. Read-outs that look alike come from different tables or passages of the source.

How the values were obtained:
[1] = target: human mitochondrial POLRMT (Homo sapiens, UniProt O00411); assay: Single nucleotide incorporation assay; type: biochemical; conditions: 500 μM nucleotide analog; relative to natural NTP at same concentration
[2] = target: T1, human DNA polymerase gamma (Homo sapiens, UniProt P54098); assay: Enzymatic inhibition assay; type: biochemical; conditions: read-out: IC50 DNA pol γ
T1 sequence (P54098 1-1239): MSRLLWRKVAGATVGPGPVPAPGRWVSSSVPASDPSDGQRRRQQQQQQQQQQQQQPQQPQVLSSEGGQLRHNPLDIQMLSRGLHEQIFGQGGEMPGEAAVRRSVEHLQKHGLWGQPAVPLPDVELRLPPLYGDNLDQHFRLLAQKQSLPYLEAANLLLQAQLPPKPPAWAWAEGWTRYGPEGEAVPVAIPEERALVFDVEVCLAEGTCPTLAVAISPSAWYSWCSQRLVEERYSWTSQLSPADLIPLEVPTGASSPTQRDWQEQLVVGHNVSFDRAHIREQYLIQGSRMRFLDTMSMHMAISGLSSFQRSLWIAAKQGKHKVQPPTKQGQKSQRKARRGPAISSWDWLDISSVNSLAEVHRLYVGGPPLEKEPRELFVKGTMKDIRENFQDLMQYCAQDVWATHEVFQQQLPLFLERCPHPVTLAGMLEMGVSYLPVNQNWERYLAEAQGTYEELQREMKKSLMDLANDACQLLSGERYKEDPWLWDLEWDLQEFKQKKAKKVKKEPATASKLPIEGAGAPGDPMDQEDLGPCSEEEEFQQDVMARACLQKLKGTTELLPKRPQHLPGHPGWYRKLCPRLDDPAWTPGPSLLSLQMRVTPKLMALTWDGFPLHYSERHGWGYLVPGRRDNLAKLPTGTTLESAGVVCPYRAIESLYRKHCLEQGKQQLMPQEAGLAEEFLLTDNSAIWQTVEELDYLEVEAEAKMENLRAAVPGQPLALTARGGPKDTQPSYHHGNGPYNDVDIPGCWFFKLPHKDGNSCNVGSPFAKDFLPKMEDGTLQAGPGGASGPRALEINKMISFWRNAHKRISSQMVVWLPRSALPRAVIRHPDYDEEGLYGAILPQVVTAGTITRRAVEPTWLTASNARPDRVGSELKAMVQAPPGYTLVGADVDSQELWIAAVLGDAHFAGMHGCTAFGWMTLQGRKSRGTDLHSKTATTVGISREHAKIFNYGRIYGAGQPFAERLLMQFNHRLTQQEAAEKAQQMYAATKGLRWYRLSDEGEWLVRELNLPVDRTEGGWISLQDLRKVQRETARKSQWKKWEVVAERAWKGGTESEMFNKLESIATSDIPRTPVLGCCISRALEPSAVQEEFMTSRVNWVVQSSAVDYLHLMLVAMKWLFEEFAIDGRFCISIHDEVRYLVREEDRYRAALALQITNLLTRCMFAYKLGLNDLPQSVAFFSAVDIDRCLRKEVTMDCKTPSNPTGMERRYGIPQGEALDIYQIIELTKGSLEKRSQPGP
T1 sequence (Q9UHN1 26-485 partner limits assumed): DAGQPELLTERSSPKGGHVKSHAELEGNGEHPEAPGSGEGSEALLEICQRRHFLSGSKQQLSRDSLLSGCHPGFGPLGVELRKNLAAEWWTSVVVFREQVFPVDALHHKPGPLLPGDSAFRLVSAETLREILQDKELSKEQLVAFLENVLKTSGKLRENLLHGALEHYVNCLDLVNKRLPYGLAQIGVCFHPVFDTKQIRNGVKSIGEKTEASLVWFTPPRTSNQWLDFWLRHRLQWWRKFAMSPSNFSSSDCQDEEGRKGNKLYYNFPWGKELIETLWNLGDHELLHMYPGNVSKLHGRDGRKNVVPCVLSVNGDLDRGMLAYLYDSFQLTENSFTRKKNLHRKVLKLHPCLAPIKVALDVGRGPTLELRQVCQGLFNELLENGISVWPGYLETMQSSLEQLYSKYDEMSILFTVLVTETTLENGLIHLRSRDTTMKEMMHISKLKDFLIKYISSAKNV

[3] = target: human DNA polymerase beta (Homo sapiens, UniProt P06746); assay: Enzymatic inhibition assay; type: biochemical; conditions: read-out: IC50 DNA pol β
[4] = target: human POLRMT (Homo sapiens, UniProt O00411); assay: Enzymatic inhibition assay; type: biochemical; conditions: read-out: IC50 POLRMT pol
Chain of human POLRMT (O00411 42-1230): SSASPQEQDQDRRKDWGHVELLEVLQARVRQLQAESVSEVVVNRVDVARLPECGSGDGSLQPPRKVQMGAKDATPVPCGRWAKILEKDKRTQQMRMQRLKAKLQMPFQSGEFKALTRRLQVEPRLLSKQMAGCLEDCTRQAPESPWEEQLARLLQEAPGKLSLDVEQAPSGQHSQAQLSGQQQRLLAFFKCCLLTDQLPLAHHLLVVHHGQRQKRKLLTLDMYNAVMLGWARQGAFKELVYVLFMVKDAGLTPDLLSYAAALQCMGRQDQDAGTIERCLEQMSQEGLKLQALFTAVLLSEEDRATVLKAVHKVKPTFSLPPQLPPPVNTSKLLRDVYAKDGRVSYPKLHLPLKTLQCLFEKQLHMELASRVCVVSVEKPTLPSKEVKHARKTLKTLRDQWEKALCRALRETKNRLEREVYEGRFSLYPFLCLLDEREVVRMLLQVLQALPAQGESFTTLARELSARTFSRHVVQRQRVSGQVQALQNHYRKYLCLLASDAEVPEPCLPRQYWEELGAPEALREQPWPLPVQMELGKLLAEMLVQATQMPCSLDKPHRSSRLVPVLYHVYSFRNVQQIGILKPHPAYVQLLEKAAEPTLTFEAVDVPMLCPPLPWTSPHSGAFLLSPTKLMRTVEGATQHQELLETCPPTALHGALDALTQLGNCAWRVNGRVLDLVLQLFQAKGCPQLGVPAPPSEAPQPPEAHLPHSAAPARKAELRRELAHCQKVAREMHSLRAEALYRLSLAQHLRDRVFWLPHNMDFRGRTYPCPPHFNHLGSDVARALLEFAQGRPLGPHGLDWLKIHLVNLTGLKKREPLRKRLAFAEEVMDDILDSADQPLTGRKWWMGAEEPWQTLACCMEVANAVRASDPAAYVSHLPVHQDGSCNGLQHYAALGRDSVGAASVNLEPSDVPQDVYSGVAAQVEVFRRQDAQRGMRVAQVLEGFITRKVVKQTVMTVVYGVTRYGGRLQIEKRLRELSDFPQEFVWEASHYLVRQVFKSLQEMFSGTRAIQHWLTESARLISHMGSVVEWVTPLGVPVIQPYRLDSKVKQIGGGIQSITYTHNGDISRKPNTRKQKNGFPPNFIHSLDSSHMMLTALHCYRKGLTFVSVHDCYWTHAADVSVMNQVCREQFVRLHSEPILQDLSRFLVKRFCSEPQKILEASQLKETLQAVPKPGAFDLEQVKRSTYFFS

[5] = target: T2, human mitochondrial DNA Pol γ (Homo sapiens, UniProt P54098); assay: Single nucleotide incorporation assay; type: biochemical; conditions: 50 μM nucleotide analog; relative to natural dNTP at same concentration
T2 sequence (P54098 1-1239): T1 sequence (P54098 1-1239)
T2 sequence (Q9UHN1 26-485 partner limits assumed): T1 sequence (Q9UHN1 26-485 partner limits assumed)

[6] = in vitro; conditions: human, CC50, Myeloid progenitors; 11- to 14-day treatment
[7] = system: SDH-A (nuclear DNA-encoded succinate dehydrogenase, complex II) protein level; assay: Mitochondrial protein synthesis assay; type: cell-based; conditions: human, PC-3 cells
[8] = system: COX-1 (mitochondrial DNA-encoded cytochrome c oxidase, complex IV) protein level; assay: Mitochondrial protein synthesis assay; type: cell-based; conditions: human, PC-3 cells
[9] = Cellular ATP alongside the mitochondrial protein synthesis assay; conditions: human, PC-3 cells
[10] = Mitochondrial respiration; type: cell-based; conditions: human, PC-3 cells, 3-day treatment
[11] = Mitochondrial respiration; type: cell-based; conditions: human, HepG2 cells, 3-day treatment
[12] = in vitro; conditions: human
[13] = Mitochondrial respiration; type: cell-based; conditions: human; for CC50 at 3 day: PHH cells (primary human hepatocytes); for CC50 at 3 days: primary human hepatocytes (PHH)
[14] = system: mitochondrial DNA (mtDNA) in HepG2 cells; assay: Mitochondrial DNA content by qPCR; type: cell-based, human; conditions: continual treatment for 10 days
[15] = in vitro; conditions: human; remark: listed apart in the source
[16] = system: PC-3; conditions: read-out: 5-day CC50 PC-3 cells Anaerobic (glucose)
[17] = Mitochondrial respiration; type: cell-based; conditions: human, RPTEC cells, RPTECs, 3-day treatment
[18] = system: HepG2; conditions: read-out: 5-day CC50 HepG2 cells Anaerobic (glucose)
[19] = moderate COVID-19, cited from earlier work
[20] = system: HepG2 galactose-adapted cell line; conditions: read-out: 5-day CC50 HepG2 cells Aerobic (galactose)
[21] = hospitalized patients with COVID-19; RDV for up to 10 days; cited from earlier work
[22] = cited from earlier work
[23] = system: HepG2 cells; assay: Intracellular reactive oxygen species level; type: cell-based, human
[24] = cited from earlier work; remark: listed apart in the source
[25] = system: SARS-CoV-2 in human airway epithelial cells (HAE); conditions: read-out: EC50 against SARS-CoV-2; cited from earlier work
[26] = system: PC-3 galactose-adapted cell line; conditions: CC50 galactose versus glucose culture
[27] = system: Stimulated PBMC; conditions: 5-day treatment
[28] = pH 7.4, 3-day CC50 Spare respiration
[29] = healthy subjects, repeat-dose study 150 mg once daily, reversible
[30] = humans, repeated dosing of 150 mg

Chain of human mitochondrial POLRMT (O00411 42-1230): as above

Compound: COc1nc(N)nc2c1ncn2[C@@H]1O[C@H](COP(=O)(N[C@@H](C)C(=O)OCC(C)(C)C)Oc2cccc3ccccc23)[C@@H](O)[C@@]1(C)O (some centres unmarked) [2’CMe-GTP, 2′CMe-GTP]
- Rate of incorporation (% of natural dNTP or NTP), mtRNA polymerase [1]: 92% ± 33%

Compound: Cc1cn([C@H]2CC[C@@H](COP(=O)(O)OP(=O)(O)OP(=O)(O)O)O2)c(=O)[nH]c1=O [3′dTTP]
- IC50 [2]: 1.2 µM
- IC50 [3]: 1.9 µM

Compound: Nc1nc2c(ncn2[C@@H]2O[C@H](COP(=O)(O)OP(=O)(O)OP(=O)(O)O)C[C@H]2O)c(=O)[nH]1 [3′deoxy GTP, 3′-deoxy GTP]
- IC50 [4]: 4.2 µM

Compound: CC(C)C(=O)OC[C@@]1(N=[N+]=[N-])O[C@@H](n2ccc(N)nc2=O)[C@H](OC(=O)C(C)C)[C@@H]1OC(=O)C(C)C [4’CN-CTP, 4′-CN-CTP]
- Rate of incorporation (% of natural dNTP or NTP), mtRNA polymerase [1]: 112% ± 10%

Compound: Nc1ncn([C@H]2C[C@H](O)[C@@H](COP(=O)(O)OP(=O)(O)OP(=O)(O)O)O2)c(=O)n1 [5-aza-2′-dCTP, 5-aza-2′-deoxyCTP]
- Rate of incorporation (% of natural dNTP or NTP), DNA polymerase γ [5]: 79% ± 8%

Compound: O=c1[nH]cc(F)c(=O)[nH]1 [5-fluorouracil, reference compound]
- CC50 [6]: 2.2 ± 0.6 µM

Compound: O=C(N[C@H](CO)[C@H](O)c1ccc([N+](=O)[O-])cc1)C(Cl)Cl [Chloramphenicol, chloramphenicol, reference compound]
- CC50 at 5 days [7]: > 25 µM
- CC50 at 5 days [8]: 2.6 ± 0.6 µM
- CC50 at 5 days [9]: 14.1 ± 3.6 µM
- CC50 at 3 day ([10]; 3-day CC50 Cellular ATP): > 50 µM
- CC50 at 3 day ([10]; 3-day CC50 Total DNA content): > 50 µM
- CC50 at 3 day [10, 28]: 4.8 ± 1.3 µM

Compound: N#C[C@@]1(c2ccc3c(N)ncnn23)O[C@H](CO)[C@@H](O)[C@H]1O [GS-441524]
- CC50 at 3 day ([11]; 3-day CC50 Cellular ATP): > 100 µM
- CC50 at 3 day ([11]; 3-day CC50 Total DNA content): > 100 µM
- CC50 at 3 day [11, 28]: > 100 µM
- CC50 at 5 days [12]: > 100 µM
- CC50 at 3 day [13]: > 100 µM
- CC50 at 3 days [13]: > 100 µM
- CC50 at 3 days ([13]; pH 7.4): > 100 µM
- effect on mtDNA content (in words) [14]: overall minimal
- CC50 [6]: 11.7 ± 9.6 µM
- CC50 at 5 days [7]: > 100 µM
- CC50 at 5 days [15]: > 100 µM
- CC50 [16]: > 100 µM
- CC50 at 5 days [8]: > 100 µM
- CC50 at 5 days [9]: > 100 µM
- CC50 at 3 day ([10]; 3-day CC50 Cellular ATP): > 100 µM
- CC50 at 3 day ([10]; 3-day CC50 Total DNA content): > 100 µM
- CC50 at 3 day [10, 28]: > 100 µM
- CC50 at 3 day ([17]; 3-day CC50 Cellular ATP): > 100 µM
- CC50 at 3 day ([17]; 3-day CC50 Total DNA content): > 100 µM
- CC50 at 3 day [17, 28]: > 100 µM
- CC50 [18]: > 100 µM

Compound: [H]/N=C(/N)N/C(=N/[H])NCCc1ccccc1 [Phenformin, phenformin, reference compound]
- CC50 at 3 day [13]: 9.7 ± 4.5 µM
- CC50 at 3 days [13]: 22.1 ± 1.9 µM
- CC50 at 3 days ([13]; pH 7.4): 1.9 ± 0.5 µM

Compound: CCC(CC)COC(=O)[C@H](C)N[P@](=O)(OC[C@H]1O[C@@](C#N)(c2ccc3c(N)ncnn23)[C@H](O)[C@@H]1O)Oc1ccccc1 [RDV, Remdesivir]
- CC50 at 3 day ([11]; 3-day CC50 Cellular ATP): 7.9 ± 0.1 µM
- CC50 at 3 day ([11]; 3-day CC50 Total DNA content): 6.3 ± 0.9 µM
- CC50 at 3 day [11, 28]: 10.6 ± 0.1 µM
- CC50 at 5 days [12]: 1.4 ± 0.1 µM
- Grade 3 or 4 adverse events, ALT ([19]; 5-day RDV): 2%
- Grade 3 or 4 adverse events, AST ([19]; 5-day RDV): 3%
- adverse events of elevations in ALT ([19]; 5-day RDV): 34%
- adverse events of elevations in AST ([19]; 5-day RDV): 32%
- Grade 3 or 4 adverse events, ALT ([19]; 10-day RDV): 3%
- Grade 3 or 4 adverse events, AST ([19]; 10-day RDV): 1%
- adverse events of elevations in ALT ([19]; 10-day RDV): 32%
- adverse events of elevations in AST ([19]; 10-day RDV): 32%
- CC50 [20]: 11.1 ± 1.2 µM
- CC50 at 3 day [13]: 7.8 ± 2.2 µM
- CC50 at 3 days [13]: 13.4 ± 1.7 µM
- CC50 at 3 days ([13]; pH 7.4): 7.6 ± 1.9 µM
- effect on mtDNA content (in words) [14]: lack of dose response
- adverse events of increased amino transferase levels, including ALT, AST, or both [21]: 6 % of subjects
- CC50 [6]: 5.1 ± 2.3 µM
- CC50 at 5 days [7]: 8.6 ± 1.3 µM
- adverse events of elevations in ALT ([22]; 5-day RDV treatment): 6%
- adverse events of elevations in AST ([22]; 5-day RDV treatment): 5%
- adverse events of elevations in ALT ([22]; 10-day RDV treatment): 8%
- adverse events of elevations in AST ([22]; 10-day RDV treatment): 7%
- CC50 at 5 days [8]: 8.9 ± 1.1 µM
- CC50 at 5 days [9]: 11.3 ± 3.3 µM
- decrease in cell viability ([23]; 100 μM, 24-h incubation): 60%
- increase in ROS levels ([23]; 100 μM, 24-h incubation, vs DMSO control): 60%
- effect on ROS levels ([23]; 3.1 to 50 μM, 24-h incubation): no significant increase in ROS levels; also recorded: no effect on ROS
- treatment-emergent grade 1 or 2 ALT elevations [24, 29]: 50%
- treatment-emergent grade 1 or 2 AST elevations [24, 29]: 44%
- plasma Cmax [24, 30]: 2,720 ng/ml
- t1/2 [24, 30]: 1.11 h
- Cmax ([24]; read-out: plasma Cmax, humans, repeated dosing of 150 mg): 4.5 µM
- EC50 [25]: 0.0099 µM
- enhancement of cytotoxicity by aerobic conditions [26]: 6 fold
- CC50 at 3 day ([10]; 3-day CC50 Cellular ATP): 24 ± 1.4 µM
- CC50 at 3 day [10, 28]: 2.5 ± 0.1 µM
- CC50 at 3 day ([17]; 3-day CC50 Cellular ATP): 16.9 ± 4.1 µM
- CC50 at 3 day ([17]; 3-day CC50 Total DNA content): 14.3 ± 3.3 µM
- CC50 at 3 day [17, 28]: 7.3 ± 2.7 µM
- CC50 [27]: 14.8 ± 5.8 µM

Compound: CC1=CC(=O)c2ccccc2C1=O [menadione, reference compound]
- increase in ROS levels ([23]; 30-minute incubation (100 or 200 μM)): > 3 fold
